Results published in patent publication US8206983B2, “In vitro methods for the induction and maintenance of plant cell lines as single suspension cells with intact cell walls” (Dow AgroSciences, LLC., priority 2006, dated 2012).
Like-named read-outs stand apart in the source and are kept apart here.

Legend:
[1] = test system: BY2, NT1, Petite Havana (PH) and Xanthi (Xan) and Jimson Weed (JM) Suspension Cells; experiment: Effects of tubulin inhibitors on growth and cell separation, all suspension types tested; type: cell-based
Source text: BY2 suspension-cultured cells were obtained from Japan tobacco and maintained in LSBY2 medium in a 7 day cycle. Jimsonweed suspension and Pettite Havana tobacco suspensions were initiated from callus initiated at DAS and Xanthi suspensions were procured as a sample from Professor Jack Widholm from UIUC, IL. JT-NT1 suspension cells, obtained from Washington University that are maintained in NT1B medium in 7 day cycle were used only for the pectin degradation enzyme study to separate the cells into single cells. The cells were cultured in shake flasks at 25-28° C. in dark on orbital shakers at 150 rpm. […] Stock concentrations of both the tubulin polymerization inhibitors used in this investigation were dissolved in DMSO to prepare a 0.5 M stock solution. The concentration tested for the pectinase and pectolyase enzymes were in the range of 0.0005% to 0.005%. […] NT-1 cells were originally developed from Nicotiana tabacum L. cv. bright yellow 2.
Cell expansion and separation were observed by light microscopy (with Nomarski and dark field optics). Spherical cells and single cells were counted by using a hemacytometer to determine the degree of cell expansion and separation, respectively. […] In order to determine the presence of the cell wall in this single cell cultures optical brightener was used. Calcafluor obtained from Sigma, which is a specific fluorescent dye for cellulose is used in this study, and the cellulose-Calcafluor complexing was observed by fluorescence microscopy (Zeiss Photomicroscope). […] Prior to use, the Calcafluor stain was centrifuged at 15,000 g for 2 min. to remove precipitates. A drop or two of the Calcafluor solution was added to the separated cells.

[2] = test system: JTNT1 tobacco cell suspension cultures; experiment: Single cell production, growth and viability of JTNT1 suspension with microtubule inhibitors in 24-well plates, glycerol medium
Source text: JTNT1 Tobacco Suspension Cultures. […] Furthermore, Suc stabilizes preformed microtubules, making an examination of the effects of MTIs on preformed microtubules unfeasible. In addition, sucrose increases solution viscosity substantially, and tubulin polymerization is altered at least in part by slowed dimer and polymer diffusion rates. Thus, it was important to have low or no sucrose in medium where the single cell production. Thus, a new JTNT1 line habituated in Glycerol was developed for this study.
Each of the 24 well contained 1 ml of JTNT1 suspension. The 24-well plates were kept on an Innova 4900 Multi Environmental Shaker with special clamps and harnesses to allow stacking of plates up to 6 plates high. The plates were rotated at a speed of 130 rpm and 25° C. in dark.
Single Cell Production. Each compound was dissolved in dimethyl sulfoxide (DMSO) to provide 0.5 Molar stock solutions. One ml of JTNT1 suspension (1 ml PCV/20 ml tobacco media) was added to each well of the 24 well plates. To each well an individual chemical was added to achieve the desired concentrations (at 1 μM, 3 μM, and 10 μM). The cultures were allowed to grow for 7 days on the Innova Shaker. Each day turbidity measurements was taken on each well using a SpectraMax M2^e by Molecular devices (set at 600 absorbance, with 5 readings taken per well). On day 7, cells were observed using the Leica 5000 inverted confocal microscope for formation of single cells and cell viability.

[3] = test system: Carrot suspension cultures; experiment: Single cell production from carrot suspension cultures; set-up: colony growth after plating single cells on M-medium: dose or concentration left out as unconfirmed
Procedure: Carrot callus cultures have been initiated from the in vitro maintained Daucus carota L. ssp. sativus cv Sativa plants. Isolated leaf petiole explants were cultured on semi solid medium (Mashayekhi-Nezamabadi, 2000). Suspension cultures were initiated from the callus by transferring 50 mg of friable callus in 1.5 ml of LSBY2 medium (Appendix I) in 24 micro well plate. The fastest growing suspensions were then transferred to flasks with 1 ml suspension in 35 ml LSBY2 liquid medium. The cultures were maintained in diffused light in a 7 day sub culture cycle.
A 1.5-ml diluted single cell cultures were plated on M-medium (Appendix II) in 15×100 Petri-plates and spread out using the loop. Untreated carrot suspension aggregates were also diluted to the same density and plated similarly to compare the growth responses between these cultures.
LSBY2 medium consists of Murashige and Skoog macro and micro-salts (Murashige and Skoog 1962) supplemented with 30 g sucrose (w/v), 100 mg/l myoinositol, 200 mg/l KH2PO4, 1 mg/l thiamine and […] 2,4-dichlorophenoxyacetic acid. The medium is adjusted pH 5.8 before autoclaving at 120° C. Suspension volume at the 7th day of culture, at stationary phase was used to initiate cultures. A 1-ml volume of carrot suspension inoculums is transferred into 50 ml LSBY2 medium and then the cultures were placed on shakers at 150 rpm in the dark at 28° C. The MTI compounds used were added along with the fresh medium at the culture initiation cycle.
A regenerable carrot cryopreserved line (D2-40-018) was thawed and cultured in Linsmeier-Skoog (LS) medium (Nagata, T., Nemoto, Y., and Hasezawa, S. (1992) Int. Rev. Cyto 132, 1-30). Medium salts were purchased from PhytoTechnology Laboratories, Catalog #L689. An actively growing suspension line was established within a week, and the maintenance line was sub-cultured by transferring 2 ml PCV to 58 ml of LS BY2 suspension medium at 28° C. on an orbital shaker (Innova-3300) at 125 rpm under diffused light on a 7 day culture cycle.

NT1 tobacco cell growth = experiment: Effects of MTI on NT1 tobacco cell growth and single cell production in glycerol medium; type: cell-based
Procedure: The effects of Microtubule inhibitors (MTI) on tobacco cell growth in suspension culture were examined. […] Both the control and MTI-containing flasks contained a final concentration of 0.5-0.1% (v/v) DMSO. The growth of these chemicals was evaluated in EP12 medium for BY2 cells and NT1B medium for BTI-NT1 cells were the carbon source is substituted with 3% glycerol. The response of these cells was compared with the same medium composition but with 3% sucrose as the Carbon source.

## CCOC(=O)COc1nn(-c2ccccc2)c(-c2ccccc2)c1Cl [DAS-PMTI-1]
[1]
  potency relative to colchicine in affecting the growth of the cultures: 100-1000 ×
[1]; 0.5 mM
  cell growth: affected very significantly
[1]; 0.5 mM, after 7 days of treatment
  cell death: considerable cell death
[1]; all the cell suspension types tested
  cell segregation: partial segregation of cells with general spherical shape
[2]; 1 uM, sucrose or glycerol medium
  biomass versus respective controls: did not reduce the biomass of the cells significantly
[3]
  character of single cell production: assorted cell shapes
NT1 tobacco cell growth
  concentrations causing inhibition of mitosis, and cell death: over 100 nM
  threshold of tobacco cell growth inhibition: ~50 nM
NT1 tobacco cell growth; 25 nM
  micro-nuclei in single cells (microscopic observations): did not show the presence of micro-nuclei
NT1 tobacco cell growth; 25 nM (sentence ends with 50 nM), 3% glycerol
  fresh weights versus controls during the stationary phase: slightly greater
NT1 tobacco cell growth; 25 nM, over a period of 10 days
  growth rate of the cells: not lowering the growth rate
NT1 tobacco cell growth; 0.5-1.0 mM
  effect on growth: complete inhibition and cell death
NT1 tobacco cell growth; 0.5-1.0 mM, from culture initiation
  time to complete inhibition and cell death: ≤ 3 days
NT1 tobacco cell growth; glycerol as total carbon source, NT1 cells
  concentration effective for the production of single cells: 0.005 to 0.025 µM

## COc1cc2c(c(OC)c1OC)-c1ccc(OC)c(=O)cc1[C@@H](NC(C)=O)CC2 [Colchicine]
[1]; 0.5 mM colchicine, all the other cell suspensions tested
  cell expansion and separation: partially occurred
[2]
  concentration necessary to produce single cells, lower end of range: ≥ 50 µM
  concentration necessary to produce single cells, upper end of range: ≤ 2 mM
[2]; NT1B medium with 3% glycerol
  increase in diameter of single cells: 5 fold
[3]
  character of single cell production: homogenous production of single cells
[3]; 1 mM
  time of single cell production: 3 to 7 days
[3]; 1 mM, 14-21 days of continuous treatments
  nuclear ploidy of single cells: nuclear polyploidy
[3]; 1 mM, 4 days and 11 days
  viability by fluorescein diacetate stain: very active and viable
[3]; 1 mM, cultures up to 14 days
  frequency of nuclear polyploidy: < 1%
[3]; 1 mM, up to 28 days
  nuclei of super single cells: extensive lobed nuclei
[3]; 7 days in colchicine, 4 weeks growth in the dark
  colony growth after plating single cells on M-medium: several discrete colonies
NT1 tobacco cell growth
  concentration effective for the production of single cells: 250 to 500 µM
